One experiment concerns Septoria tritici. The experiment can be described thus: Septoria tritici infection of wheat plants, isopyrazam spray with/without adjuvants. It is filed as in vivo, Septoria tritici (on wheat plants). As to conditions: conclusion from Table 2. As to the method: The efficacy of the following aromatic acid esters tri-n-hexyltrimellitate (Morflex®560) and tri-isodecyl trimellitate (Morflex®530), as adjuvants in compositions comprising isopyrazam was tested and compared to the standard formulations (both EC and SC) of the fungicide, which lack this type of adjuvant.
Wheat plants were inoculated with the fungus Septoria tritici. Five days after inoculation the plants were sprayed with a diluted emulsion concentrate or suspension concentrate formulation of the fungicide isopyrazam at rates of 3, 10, 30 and 100 mg of the fungicide per litre of spray solution, using a laboratory track sprayer which delivered the spray at a rate of 200 liters per hectare. Spray tests were also carried out with diluted suspension concentrate additionally comprising each of the benzoate adjuvants described above. These adjuvants were added to the spray solution at a rate of 0.5% w/w, based on the quantity of spray liquor. The adjuvant oils were emulsified using a small amount of the surfactant Pluronic® PE 10500, which was present in the composition at a concentration of 0.02% v/v. The leaves of the plants were assessed visually 14 days after the spray application and the damage was expressed as the percentage of the leaf area infected.

For experiment [1], the system named is Abutilon theophrasti, Chenopodium album, Digitaria sanguinalis, Setaria viridis. Type of experiment: in vivo. The procedure:
The efficacy of the aromatic esters tri-n-hexyltrimellitate (Morflex®560) and tri-isodecylmellitate (Morflex®530) as adjuvants for nicosulfuron were tested in a glasshouse against four weed species. An agrochemical composition was prepared containing 0.2% v/v of the adjuvant in a track sprayer, and was applied at a volume of 200 liters per hectare. The adjuvant oils were emulsified using a small amount of the surfactant Pluronic® PE 10500, which was present in the composition at a concentration of 0.02% v/v. Nicosulfuron was applied at a rate of either 30 or 60 grams per hectare. The weed species and their growth stage at spraying were Abutilon theophrasti (ABUTH; growth stage 13), Chenopodium album (CHEAL; growth stage 14), Digitaria sanguinalis (DIGSA; growth stage 13), and Setaria viridis (SETVI; growth stage 13).
Each spray test was replicated three times. The efficacy of the herbicide was assessed visually and expressed as a percentage of the leaf area killed. Samples were assessed at time periods of 14 and 21 days following application. […] In this experiment Atplus®411F was added at the higher rate of 0.5% v/v. The other adjuvants were added at 0.2% v/v.

Experiment [2] deals with Alopecurus myosuroides, Avena fatua, Lolium perenne, Setaria viridis. Kind of experiment: Glasshouse weed kill, pinoxaden with/without adjuvants (Example 8). Type of experiment: in vivo. As to the method:
The efficacy of the aromatic esters tri-n-hexyltrimellitate (Morflex®560) and tri-isodecylmellitate (Morflex®530) as adjuvants for pinoxaden were tested in a glasshouse against four weed species. An agrochemical composition was prepared containing 0.2% v/v of the adjuvant in a track sprayer and was applied at a volume of 200 liters per hectare. Pinoxaden was applied at either 7.5 or 15 grams per hectare on each of the weed species. The weed species and their growth stage at spraying were Alopecurus myosuroides (ALOMY; growth stage 13), Avena fatua (AVEFA; growth stage 12); Lolium perenne (LOLPE; growth stage 13), Setaria viridis (SETVI; growth stage 14).
Each spray test was replicated three times. The efficacy of the herbicide was assessed visually and expressed as a percentage of the leaf area killed. Samples were assessed at time periods of 7 and 14 days following application. The results shown in Table 9 below are mean averages over the two rates of pinoxaden, three replicates, four weed species and the two assessment timings. The results were compared to the efficacy of pinoxaden in the absence of an adjuvant and pinoxaden in the presence of either tri-2-ethylhexyl phosphate (applied at 0.5% v/v) or methyl oleate (applied at 0.2% v/v).

Experiment [3] shares this test system. Kind of experiment: Glasshouse weed kill, pinoxaden with/without adjuvants (Example 6). It is filed as in vivo. As to conditions: % leaf area killed; mean over pinoxaden 7.5 and 15 g/ha, 14 and 21 days, four species; adjuvant 0.2%. As to the method: The efficacy of the aromatic ester tri-n-hexyltrimellitate (Morflex®560) was tested in a glasshouse against four weed species using the herbicide pinoxaden. An agrochemical composition was prepared containing 0.2% v/v of the adjuvant in a track sprayer and was applied at a volume of 200 liters per hectare. The adjuvant oils were emulsified using a small amount of the surfactant Pluronic® PE 10500, which was present in the composition at a concentration of 0.02% v/v. Pinoxaden was applied at either 7.5 or 15 grams of pesticide per hectare on each of the weed species. The weed species and their growth stage at spraying were Alopecurus myosuroides (ALOMY; growth stage 13), Avena fatua (AVEFA; growth stage 12); Lolium perenne (LOLPE; growth stage 13), Setaria viridis (SETVI; growth stage 14).
Each spray test was replicated three times. The efficacy of the herbicide was assessed visually and expressed as a percentage of the leaf area killed. Samples were assessed at time periods of 14 and 21 days following application. The results shown in table 7 below are mean averages over the two rates of pinoxaden, three replicates, four weed species and the two assessment timings, and are compared to the efficacy of pinoxaden in the absence of adjuvant and pinoxaden in the presence of the known adjuvant acetyl tributyl citrate which was used at a concentration of 0.2% w/w.

Another experiment has as its system Tetranychus urticae. Kind of experiment: Mortality of two spotted spider mite on French bean plants, abamectin with/without Morflex 560. Type of experiment: in vivo, Tetranychus urticae (on Phaseolus vulgaris). As to conditions: 10 days, larva and adults averaged, Morflex 560 0.1% v/v where present. The procedure:
The efficacy of tri-n-hexyltrimellitate (Morflex® 560) as an adjuvant in compositions containing abamectin was tested and compared to the efficacy of abamectin compositions which lack this type of adjuvant. The Morflex 560 was present at 0.1% v/v in the abamectin compositions. The surfactants polyoxyethylene sorbitan monooleate and an ethoxylated castor oil were also present in all the abamectin compositions tested. Two week old French bean (Phaseolus vulgaris) plants were infested with a mixed population of two spotted spider mite Tetranychus urticae. One day after infestation the plants were treated with the test compositions, with a track sprayer from the top with a rate of 200 liters per hectare. Plants were incubated in the greenhouse for 10 days and the evaluation was done on mortality against Larva and Adults, just on the lower side (untreated) of the leaves. Each experiment was replicated twice and the results were averaged. The mortality against Larva and Adults was then averaged.

Experiment [4] relates to Chenopodium album, Abutilon theophrasti, Setaria viridis, Xanthium strumarium. The experiment can be described thus: Glasshouse weed kill, fomesafen with/without adjuvants (Example 4). Type of experiment: in vivo. As to conditions: % leaf area killed; mean over fomesafen 60 and 120 g/ha, 7, 14 and 21 days, four species; adjuvant 0.2% (Turbocharge 0.5% w/w). As to the method: The efficacy of the aromatic acid ester Morflex ®560 (tri-n-hexyltrimellitate) as an adjuvant for the herbicide fomesafen was tested against four weed species in a glasshouse and compared to the well-know adjuvants, acetyl tributyl citrate and Turbocharge® which were added at concentrations of 0.2 and 0.5% w/w respectively. The adjuvant oils were emulsified using a small amount of the surfactant Pluronic® PE 10500, which was present in the composition at a concentration of 0.02% v/v.
An agrochemical composition was prepared containing 0.2% v/v of the adjuvant in a track sprayer and was applied at a volume of 200 liters per hectare. Fomesafen was applied at either 60 or 120 grams of pesticide per hectare on each of the weed species. The weed species and their growth stage at spraying were Chenopodium album (CHEAL; growth stage 14), Abutilon theophrasti (ABUTH; growth stage 12), Setaria viridis (SETVI; growth stage 13), and Xanthium strumarium (XANST; growth stage 12).
Each spray test was replicated three times. The efficacy of the herbicide was assessed visually and expressed as a percentage of the leaf area killed. Samples were assessed at time periods of 7, 14 and 21 days following application. […]

In experiment [5] the test system is Abutilon theophrasti, Chenopodium album, Digitaria sanguinalis, Setaria viridis. Kind of experiment: Glasshouse weed kill, nicosulfuron with/without adjuvants (Example 3). It is filed as in vivo. As to conditions: % leaf area killed; mean over nicosulfuron 30 and 60 g/ha, 14 and 21 days, four species; adjuvant 0.2%. As to the method: The efficacy of the aromatic acid ester Morflex ®560 (tri-n-hexyltrimellitate) as an adjuvant for the herbicide nicosulfruon was tested against four weed species in a glasshouse and compared to the well-know adjuvants, tris-2-ethylhexyl phosphate and acetyl tributyl citrate which were tested at concentrations of 0.2% w/w. The adjuvant oils were emulsified using a small amount of the surfactant Pluronic® PE 10500, which was present in the composition at a concentration of 0.02% v/v.
An agrochemical composition was prepared containing 0.2% v/v of the adjuvant in a track sprayer, and was applied at a volume of 200 liters per hectare. Nicosulfuron was applied at a rate of either 30 or 60 grams of pesticide per hectare. The weed species and their growth stage at spraying were Abutilon theophrasti (ABUTH; growth stage 13), Chenopodium album (CHEAL; growth stage 14), Digitaria sanguinalis (DIGSA; growth stage 13), and Setaria viridis (SETVI; growth stage 13).
Each spray test replicated three times. The efficacy of the herbicide was assessed visually and expressed as a percentage of the leaf area killed. Samples were assessed at time periods of 14 and 21 days following application. […]

Experiment [6] deals with Polygonum convolvulus, Brachiaria platyphylla, Digitaria sanguinalis, Amaranthus tuberculatus. The experiment can be described thus: Glasshouse weed kill, mesotrione with/without adjuvants (Example 5). It is filed as in vivo. As to conditions: % leaf area killed; mean over mesotrione 45 and 90 g/ha, 7, 14 and 21 days, four species; adjuvant 0.2% (Tween 20 0.5% w/w). As to the method: The efficacy of the aromatic ester tri-n-hexyltrimellitate (Morflex®560) was tested in a glasshouse against four weed species using the herbicide mesotrione. An agrochemical composition was prepared containing 0.2% v/v of the adjuvant in a track sprayer and was applied at a volume of 200 liters per hectare. The adjuvant oils were emulsified using a small amount of the surfactant Pluronic® PE 10500, which was present in the composition at a concentration of 0.02% v/v. Mesotrione was applied at either 45 or 90 grams of pesticide per hectare on weeds which had been grown to the 1.3 or 1.4 leaf stage. The weed species were Polygonum convolvulus (POLCO), Brachiaria platyphylla (BRAPL) Digitaria sanguinalis (DIGSA) and Amaranthus tuberculatus (AMATU).
Each spray test was replicated three times. The efficacy of the herbicide was assessed visually and expressed as a percentage of the leaf area killed. Samples were assessed at time periods of 7, 14 and 21 days following application. The results shown in Table 6 below are mean averages over the two rates of mesotrione, three relicates, four weed species and the three assessment timings and are compared to the efficacy of mesotrione in the absence of an adjuvant, and mesotrione in the presence of the commercially available adjuvants acetyl tributyl citrate or Tween®20 which were used at concentrations of 0.2 and 0.5% w/w respectively.

Read-outs that look alike come from different tables or passages of the source.

Turning to `CC(C)CCCCCCCOC(=O)c1ccc(C(=O)OCCCCCCCC(C)C)c(C(=O)OCCCCCCCC(C)C)c1` [Tri-isodecyl trimellitate], the “adjuvant efficacy in words (isopyrazam, S. tritici)” value with Septoria tritici is “as efficacious as the commercial tank mix adjuvant Turbocharge®”. Further, the “adjuvant efficacy in words (nicosulfuron)” value in experiment [1] (conclusion from Table 8) was “increases the efficacy of the herbicide nicosulfuron”. In addition, in experiment [2] (conclusion from Table 9), the “adjuvant efficacy in words (pinoxaden)” value was “increases the efficacy of pinoxaden”.

For `CCc1cc(C)cc(CC)c1-c1c(OC(=O)C(C)(C)C)n2n(c1=O)CCOCC2` [Pinoxaden, reference compound], the “Mean percentage kill, mean across species” value (“Mean percentage kill” below) in experiment [3] turned out to be 11.4 C %; in experiment [2] (% leaf area killed, mean over pinoxaden 7.5 and 15 g/ha, 7 and 14 days, four species, adjuvant 0.2% v/v (tri-2-ethylhexyl phosphate 0.5% v/v)) it was 2.3 D %.

On to Abamectin, for which the “% mortality of Tetranychus urticae” value in the experiment with Tetranychus urticae (abamectin 0.2 ppm) is 0%; in the experiment on Tetranychus urticae (abamectin 0.4 ppm), 0%; in the experiment with Tetranychus urticae (abamectin 0.8 ppm) it was 27%; with Tetranychus urticae (abamectin 1.5 ppm), 70%; in the experiment on Tetranychus urticae (abamectin 3 ppm) it was 95%.

For the molecule `CS(=O)(=O)NC(=O)c1cc(Oc2ccc(C(F)(F)F)cc2Cl)ccc1[N+](=O)[O-]` [Fomesafen, reference compound], the “Mean percentage kill” value in experiment [4] came out at 22.5 D %.

`COc1cc(OC)nc(NC(=O)NS(=O)(=O)c2ncccc2C(=O)N(C)C)n1` [Nicosulfuron, reference compound]: the “Mean percentage kill” value amounted to 42.5 B % in experiment [5]; 31.1 E % in experiment [1] (% leaf area killed, mean over nicosulfuron 30 and 60 g/ha, 14 and 21 days, four species, adjuvant 0.2% v/v (Atplus 411F 0.5% v/v)).

As for `CS(=O)(=O)c1ccc(C(=O)C2C(=O)CCCC2=O)c([N+](=O)[O-])c1` [Mesotrione, reference compound], the “Mean percentage kill” value in experiment [6] was 34.0 B %.

Values taken from patent publication US9173397B2, “Formulation component” (Syngenta Limited, priority 2011, dated 2015).
